Where a name gives a salt, the structure may show the parent alone.

EDG-1, sequence (P21453 whole entry): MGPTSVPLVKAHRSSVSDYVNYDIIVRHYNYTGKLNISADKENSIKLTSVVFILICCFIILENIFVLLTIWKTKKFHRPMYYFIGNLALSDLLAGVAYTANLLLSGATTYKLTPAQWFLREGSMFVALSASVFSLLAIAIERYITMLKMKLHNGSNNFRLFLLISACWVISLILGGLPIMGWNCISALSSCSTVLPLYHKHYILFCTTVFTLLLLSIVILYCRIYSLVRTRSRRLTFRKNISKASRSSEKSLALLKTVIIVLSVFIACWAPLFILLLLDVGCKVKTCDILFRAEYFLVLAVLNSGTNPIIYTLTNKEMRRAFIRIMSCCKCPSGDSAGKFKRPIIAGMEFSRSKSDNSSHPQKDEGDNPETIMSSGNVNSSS

For one experiment, the target named is EDG-1 (Homo sapiens, UniProt P21453). In words: 35S-GTPγS binding assay, EDG1 (S1P1). The class given is biochemical. Details: expressed in transfected cells. As to conditions: Table 1b; read-out: EDG1 EC50. The procedure:
a) 35S-GTPγS Binding Assay GTP-γ-^35S binding was performed using […]15 μg protein of cell membranes suspended in 50 mM tris-HCl pH 7.5 containing 10 mM MgCl2, 100 mM NaCl and 10 μM GDP. The radioligand was 0.025 nM [^35S] GTP-γ-S and non specific binding determined in the presence of 10 μM non-radioactive GTP-γ-S. […] The maximal stimulation elicited by S1P was taken as a reference to define full or partial agonism and calculate the intrinsic activity (i.a.) of compounds.
In general terms: GTPγS resists hydrolysis and so accumulates on activated G proteins.
As a reminder, the EC50 is the concentration giving half of the maximal effect. `CC(C)Cc1ccc(-c2nc(-c3ccc(CN4CCC(Cc5ccncc5)(C(=O)O)CC4)cc3)no2)cc1Cl` [Example 43, 1-{4-[5-(3-Chloro-4-isobutyl-phenyl)-[1,2,4]-oxadiazol-3-yl]-benzyl}-4-pyridin-4-ylmethyl-piperidine-4-carboxylic acid tert-butyl amine salt]: the EC50 is under 1 nM. Still for that read-out and setting: the figure for `CC(C)Oc1ccc(-c2nc(-c3ccc(CN4CCC(C)(C(=O)O)CC4)cc3)no2)cc1Cl` [Example 44, 1-{4-[5-(3-Chloro-4-isopropoxy-phenyl)-[1,2,4]-oxadiazol-3-yl]-benzyl}-4-methyl-piperidine-4-carboxylic acid tert-butyl amine salt] is under 10 nM. With `CC1(C(=O)O)CCN(Cc2ccc(-c3noc(-c4ccc(C(C)(C)C)c(Cl)c4)n3)cc2)CC1` [Example 45, 1-{4-[5-(4-tert-Butyl-3-chloro-phenyl)-[1,2,4]-oxadiazol-3-yl]-benzyl}-4-methyl-piperidine-4-carboxylic acid tert-butyl amine salt], the EC50 was under 10 nM.

Consider `CCCc1ccc(-c2nc(-c3ccc(CN4CCC(C)(C(=O)O)CC4)cc3)no2)cc1Cl` [Example 46, 1-{4-[5-(3-Chloro-4-propyl-phenyl)-[1,2,4]-oxadiazol-3-yl]-benzyl}-4-methyl-piperidine-4-carboxylic acid tert-butyl amine salt], for which the 50% effective concentration (EC50) is under 1 nM. Still for that read-out and setting: the result for `COCCOCC1(C(=O)O)CCN(Cc2ccc(-c3noc(-c4ccc(OC(C)C)c(Cl)c4)n3)cc2)CC1` [Example 47, 1-{4-[5-(3-Chloro-4-isopropoxy-phenyl)-[1,2,4]-oxadiazol-3-yl]-benzyl}-4-(2-methoxy-ethoxymethyl)-piperidine-4-carboxylic acid tert-butyl amine salt] reads under 1 nM; that for `CCC1(C(=O)O)CCN(Cc2ccc(-c3noc(-c4ccc(OC(C)C)c(Cl)c4)n3)cc2)CC1` [Example 48, 1-{4-[5-(3-Chloro-4-isopropoxy-phenyl)-[1,2,4]-oxadiazol-3-yl]-benzyl}-4-ethyl-piperidine-4-carboxylic acid tert-butyl amine salt], under 10 nM. The same measure, in the same setting: the result for `C=CCC1(C(=O)O)CCN(Cc2ccc(-c3noc(-c4ccc(OC(C)C)c(Cl)c4)n3)cc2)CC1` [Example 49, 4-Allyl-1-{4-[5-(3-chloro-4-isopropoxy-phenyl)-[1,2,4]-oxadiazol-3-yl]-benzyl}-piperidine-4-carboxylic acid tert-butyl amine salt] reads under 1 nM; that for `O=C(O)C1(Cc2ccccn2)CCN(Cc2ccc(-c3noc(-c4ccc(-c5ccccc5)c(Cl)c4)n3)cc2)CC1` [Example 50, 1-{4-[5-(2-Chloro-biphenyl-4-yl)-[1,2,4]-oxadiazol-3-yl]-benzyl}-4-pyridin-2-ylmethyl-piperidine-4-carboxylic acid tert-butyl amine salt], under 1 nM; that for `COc1ccc(CC2(C(=O)O)CCN(Cc3ccc(-c4noc(-c5ccc(-c6ccccc6)c(Cl)c5)n4)cc3)CC2)cc1` [Example 51, 1-{4-[5-(2-Chloro-biphenyl-4-yl)-[1,2,4]-oxadiazol-3-yl]-benzyl}-4-(4-methoxy-benzyl)-piperidine-4-carboxylic acid tert-butyl amine salt], under 1 nM. On the same count and under the same terms, the result for `O=C(O)C1(Cc2ccc(F)cc2)CCN(Cc2ccc(-c3noc(-c4ccc(-c5ccccc5)c(Cl)c4)n3)cc2)CC1` [Example 52, 1-{4-[5-(2-Chloro-biphenyl-4-yl)-[1,2,4]-oxadiazol-3-yl]-benzyl}-4-(4-fluoro-benzyl)-piperidine-4-carboxylic acid tert-butyl amine salt] reads under 1 nM; that for `COc1ccc(CC2(C(=O)O)CCN(Cc3ccc(-c4noc(-c5ccc(C6CCCCC6)c(Cl)c5)n4)cc3)CC2)cc1` [Example 53, 1-{4-[5-(3-Chloro-4-cyclohexylphenyl)-[1,2,4]-oxadiazol-3-yl]-benzyl}-4-(4-methoxy-benzyl)-piperidine-4-carboxylic acid tert-butyl amine salt], under 1 nM. As for `CCC1(C(=O)O)CCN(Cc2ccc(-c3noc(-c4ccc(C5CCCCC5)c(Cl)c4)n3)cc2)CC1` [Example 54, 1-{4-[5-(3-Chloro-4-cyclohexylphenyl)-[1,2,4]-oxadiazol-3-yl]-benzyl}-4-ethyl-piperidine-4-carboxylic acid tert-butyl amine salt], the concentration giving a half-maximal response (EC50) was under 1 nM. As to `O=C(O)C1(Cc2ccccc2)CCN(Cc2ccc(-c3noc(-c4ccc(-c5ccccc5)c(Cl)c4)n3)cc2)CC1` [Example 55, 4-Benzyl-1-{4-[5-(2-chloro-biphenyl-4-yl)-[1,2,4]-oxadiazol-3-yl]-benzyl}-piperidine-4-carboxylic acid tert-butyl amine salt], the EC50 was under 1 nM. With `O=C(O)C1(Cc2ccccn2)CCN(Cc2ccc(-c3noc(-c4ccc(C5CCCCC5)c(Cl)c4)n3)cc2)CC1` [Example 56, 1-{4-[5-(3-Chloro-4-cyclohexyl-phenyl)-[1,2,4]-oxadiazol-3-yl]-benzyl}-4-pyridin-2-ylmethyl-piperidine-4-carboxylic acid tert-butyl amine salt], the 50% effective concentration (EC50) was under 1 nM.

Take `COCC1(C(=O)O)CCN(Cc2ccc(-c3noc(-c4ccc(OC(C)C)c(Cl)c4)n3)cc2)CC1` [Example 57, 1-{4-[5-(3-Chloro-4-isopropoxy-phenyl)-[1,2,4]-oxadiazol-3-yl]-benzyl}-4-methoxymethyl-piperidine-4-carboxylic acid tert-butyl amine salt]: the EC50 was under 10 nM. Still for that read-out and setting: the figure for `O=C(O)C1(Cc2cccnc2)CCN(Cc2ccc(-c3noc(-c4ccc(-c5ccccc5)c(Cl)c4)n3)cc2)CC1` [Example 58, 1-{4-[5-(2-Chloro-biphenyl-4-yl)-[1,2,4]-oxadiazol-3-yl]-benzyl}-4-pyridin-3-ylmethyl-piperidine-4-carboxylic acid tert-butyl amine salt] is under 1 nM; for `CCOCCOCC1(C(=O)O)CCN(Cc2ccc(-c3noc(-c4ccc(CC(C)C)c(Cl)c4)n3)cc2)CC1` [Example 59, 1-{4-[5-(3-Chloro-4-isobutyl-phenyl)-[1,2,4]-oxadiazol-3-yl]-benzyl}-4-(2-ethoxy-ethoxymethyl)-piperidine-4-carboxylic acid tert-butyl amine salt] it is under 1 nM. Still for that read-out and setting: the result for `CC(C)Cc1ccc(-c2nc(-c3ccc(CN4CCC(COC(C)C)(C(=O)O)CC4)cc3)no2)cc1Cl` [Example 60, 1-{4-[5-(3-Chloro-4-isobutyl-phenyl)-[1,2,4]-oxadiazol-3-yl]-benzyl}-4-isopropoxy methyl-piperidine-4-carboxylic acid tert-butyl amine salt] reads under 1 nM; that for `CC(C)Cc1ccc(-c2nc(-c3ccc(CN4CCC(COC5CCCC5)(C(=O)O)CC4)cc3)no2)cc1Cl` [Example 61, 1-{4-[5-(3-Chloro-4-isobutyl-phenyl)-[1,2,4]-oxadiazol-3-yl]-benzyl}-4-cyclopentyloxymethyl-piperidine-4-carboxylic acid tert-butyl amine salt], under 1 nM. For `CC(C)Cc1ccc(-c2nc(-c3ccc(CN4CCC(Cc5cccs5)(C(=O)O)CC4)cc3)no2)cc1Cl` [Example 62, 1-{4-[5-(3-Chloro-4-isobutyl-phenyl)-[1,2,4]-oxadiazol-3-yl]-benzyl}-4-thiophen-2-ylmethyl-piperidine-4-carboxylic acid tert-butyl amine salt], the EC50 is under 1 nM. As to `CC(C)Cc1ccc(-c2nc(-c3ccc(CN4CCC(CC5CC5)(C(=O)O)CC4)cc3)no2)cc1Cl` [Example 63, 1-{4-[5-(3-Chloro-4-isobutyl-phenyl)-[1,2,4]-oxadiazol-3-yl]-benzyl}-4-cyclopropylmethyl-piperidine-4-carboxylic acid tert-butyl amine salt], the half-maximal effective concentration (EC50) is under 1 nM. On the same count and under the same terms, the figure for `CC(C)Cc1ccc(-c2nc(-c3ccc(CN4CCC(CCN5CCOCC5)(C(=O)O)CC4)cc3)no2)cc1Cl` [Example 64, 1-{4-[5-(3-Chloro-4-isobutyl-phenyl)-[1,2,4]-oxadiazol-3-yl]-benzyl}-4-(2-morpholin-4-yl-ethyl)-piperidine-4-carboxylic acid] is under 10 nM.

With `CC(C)Cc1ccc(-c2nc(-c3ccc(CN4CCC(CCCN5CCCCC5)(C(=O)O)CC4)cc3)no2)cc1Cl` [Example 65, 1-{4-[5-(3-Chloro-4-isobutyl-phenyl)-[1,2,4]-oxadiazol-3-yl]-benzyl}-4-(3-piperidin-1-yl-propyl)-piperidine-4-carboxylic acid tert-butyl amine salt], the EC50 was under 10 nM. `CC(C)Cc1ccc(-c2nc(-c3ccc(CN4CCC(CCCN5CCCC5)(C(=O)O)CC4)cc3)no2)cc1Cl` [Example 66, 1-{4-[5-(3-Chloro-4-isobutyl-phenyl)-[1,2,4]-oxadiazol-3-yl]-benzyl}-4-(3-pyrrolidin-1-yl-propyl)-piperidine-4-carboxylic acid tert-butyl amine salt]: the EC50 was under 10 nM.

The same experiment, now with this note: comparative examples table; read-out: EDG1 EC50.
`O=C(O)C1CCN(Cc2ccc(-c3noc(-c4ccc(-c5ccccc5)c(F)c4)n3)cc2)CC1` [compound 1]: the 50% effective concentration (EC50) was in the range of 11.7 to 19.8 nM.

The subject of the next experiment is circulating lymphocytes. The experiment can be described thus: Assessment of lymphopenia in rats. The experiment is classed as in vivo. Conditions: 1 mpk p.o., 8 Hrs. The procedure:
b) Assessment of Lymphopenia
Lymphopenia was assessed in vivo. Experiments were done in non-fasted/fasted Swiss mice and/or: Sprague Dawley rats, Wistar rats, Beagle dogs, Cynomolgus monkeys. Compounds were administered orally in suspension in carboxymethyl-cellulose 0.5-1% in water (W/V). Blood was taken on anesthetized/non anaesthetized animal (4% isoflurane) and samples collected in EDTA-containing vacuum tubes from 1 h 30 to 72 hours post administration for lymphopenia measurement.
After 10 minutes stirring, cells were counted using ABC Vet haemocytometer (Scil vet animal Care) for rodent and dog or ADVIA 120 hematology analyzer for monkeys. Pharmacodynamic effect was measured by the decrease in circulating lymphocytes by test item treatment in comparison with haematological parameters of control animals or versus predosing in the same animals.
With `O=C(O)C1CCN(Cc2ccc(-c3noc(-c4ccc(-c5ccccc5)c(F)c4)n3)cc2)CC1` [compound 1], the “Lymphopenia in rats % lymphopenia at 1 mpk/p.o dose 8 Hrs” value is 18%.

Staying with this experiment, now noted: 1 mpk p.o., 24 Hrs.
As to `O=C(O)C1CCN(Cc2ccc(-c3noc(-c4ccc(-c5ccccc5)c(F)c4)n3)cc2)CC1` [compound 1], the “Lymphopenia in rats % lymphopenia at 1 mpk/p.o dose 24 Hrs” value was −54%.

The record behind these values is patent publication US9266867B2, “Piperidinyl monocarboxylic acids as S1P1 receptor agonists” (BIOPROJET, priority 2011, dated 2016).
